Structures are written as SMILES.

Here are results for one compound from US20080118494A1, “Compositions For Detection Of Latent Hiv Reactivation And Methods Of Using The Same” (priority 2004, published 2008).

The assay concerns latent HIV-1 infection in human PBMCs. Put plainly: Reactivation of latent HIV-1 in in vitro infected, EGFP-negative sorted human PBMCs. It is filed as cell-based. As to conditions: representative donor, 24 h post stimulation, untreated background 0.23%. The procedure: PBMCs from three different donors were infected with HIV-1 NLENG1-IRES and on day three post infection were treated with indinavir to inhibit de novo infection. On day seven following infection, HIV-1 expressing EGFP^+ cells were removed from the cultures using fluorescence activated cell sorting. (A) Following the sorting procedure, the EGFP-negative cells were cultured in supplemented RPMI 1640 to determine levels of spontaneous reactivation (Control), stimulated with anti-CD3 antibody clone UCHT1 (CD3), the costimulatory anti-CD28 antibody clone CD28.2 (cCD28) and with a combination of these two antibodies (cCD28/CD3). […] Numbers indicate the percentage of EGFP positive cells and the mean channel fluorescence intensity of the EGFP-positive cell population. […]
In vitro generation and analysis of HIV-1 latency in PBMCs. […] In the absence of IL-2, the cells were cultured for seven days following infection and then subjected to fluorescence activated cell sorting (FACS) to remove EGFP positive, HIV-1 expressing cells. The EGFP negative cell fraction was then activated with the indicated stimuli and reactivation of latent HIV-1 expression was measured 24 h post stimulation by determining EGFP fluorescence using FACS analysis. […]

Consider `CCCCCCCCCCCCCC(=O)O[C@@H]1[C@@H](C)[C@@]2(O)[C@@H](C=C(CO)C[C@]3(O)C(=O)C(C)=C[C@@H]23)[C@@H]2C(C)(C)[C@]12OC(C)=O` [PMA, 13-phorbol-12-myristate acetate], for which the “HIV-1 reactivation as percentage of EGFP+ cells” value came out at 0.60%.
